Experimental data published in US12473304B2, “Heterocyclic PAD4 inhibitors” (BRISTOL-MYERS SQUIBB COMPANY, priority 2020, dated 2025).

molecular target: recombinant human PAD4 (Homo sapiens (Human), UniProt Q9UM07); assay: RFMS Human PAD4 Functional Assay 2; format: biochemical; conditions: RFMS assay 2; 35 nM recombinant human PAD4, 500 μM TSTGGRQGSHH peptide, 2 mM CaCl2, room temperature 30 minutes; read-out: hPAD4 RFMS IC50
Experimental: RFMS Human PAD4 Functional Assay 2: Compound Preparation: • Stock compounds were dissolved and stored in 100% DMSO. Compound solutions were prepared via serial dilution at 3-fold intervals in DMSO with top compound concentration at 20 μM in each assay. 0.25 μl of compound solution was transferred from the compound plate to the assay plate by using an acoustic dispenser. Final Assay Conditions: • Total reaction volume: 25 μl • Assay buffer: […] pH 7.4, 200 mM NaCl, 2 mM CaCl2, 5 mM DTT • 35 nM recombinant human PAD4 • 500 μM TSTGGRQGSHH peptide • […] DMSO • Stop solution: 10% formic acid
Reaction mixtures were incubated at room temperature for 30 minutes. 10 μl each of the reaction mixtures was then mixed with 40 μl of 10% formic acid in a microtiter plate. The plate was frozen at −80° C. before shipping out on dry ice for RapidFire mass spectroscopy analysis.
Thawed samples were loaded onto the Rapid Fire 300 system (Agilent) wherein they were first sipped for 250 ms and then loaded onto an Agilent “C” (C18) cartridge using a mobile phase of water containing 0.09% formic acid/0.01% trifluoroacetic acid for 3000 ms desalting flowing at a rate of 1.5 ml/min. Once the samples were loaded and washed, a mobile phase of acetonitrile containing 0.09% formic acid/0.01% trifluoroacetic acid was used to elute the samples directly onto a Sciex API4000 triple quadrupole mass spectrometer for 3000 ms at a flow rate of 1.25 ml/min.
MRM transitions for substrate and product were monitored in positive ESI mode at m/z=562.3/969.7 and m/z=562.8/541.3 respectively. The dwell time for each transition was set at 100 ms, and the ESI voltage was used at 5500 with a source temperature of 650° C. Extracted ion peaks for each transition were integrated using the Rapid Fire Integrator software.

Sequence of recombinant human PAD4 (Q9UM07 whole entry): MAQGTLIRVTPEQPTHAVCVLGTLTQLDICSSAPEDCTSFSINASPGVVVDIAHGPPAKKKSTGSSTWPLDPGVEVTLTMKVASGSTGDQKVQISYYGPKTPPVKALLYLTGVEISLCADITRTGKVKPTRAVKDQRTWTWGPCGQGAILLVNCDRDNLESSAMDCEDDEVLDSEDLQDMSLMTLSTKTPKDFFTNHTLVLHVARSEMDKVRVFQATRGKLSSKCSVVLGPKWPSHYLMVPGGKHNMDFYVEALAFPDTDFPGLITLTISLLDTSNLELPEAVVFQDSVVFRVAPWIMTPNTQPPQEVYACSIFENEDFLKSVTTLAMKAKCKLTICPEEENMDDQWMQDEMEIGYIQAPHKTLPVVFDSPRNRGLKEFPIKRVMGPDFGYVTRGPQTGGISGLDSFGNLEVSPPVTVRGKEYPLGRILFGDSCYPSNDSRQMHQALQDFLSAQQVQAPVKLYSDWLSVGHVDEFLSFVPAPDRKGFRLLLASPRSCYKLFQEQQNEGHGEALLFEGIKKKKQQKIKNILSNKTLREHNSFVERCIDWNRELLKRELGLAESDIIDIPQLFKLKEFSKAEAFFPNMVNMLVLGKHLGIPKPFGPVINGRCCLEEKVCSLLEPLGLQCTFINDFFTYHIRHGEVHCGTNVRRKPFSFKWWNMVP

SMILES	IC50
COc1cc(C(=O)N2CCC[C@@H](N)C2)cc2sc(-c3cc4ccccc4n3CC3CC3)c(CCO)c12 [Example 622, (R)-(3-aminopiperidin-1-yl)(2-(1-(cyclopropylmethyl)-1H-indol-2-yl)-3-(2-hydroxyethyl)-4-methoxybenzo[b]thiophen-6-yl)methanone]	1200 nM
COc1cc(C(=O)N2C[C@H](N)C[C@@H](F)C2)cc2sc(-c3cc4ccccc4n3CC3CC3)c(CCO)c12 [Example 623, ((3R,5R)-3-amino-5-fluoropiperidin-1-yl)(2-(1-(cyclopropylmethyl)-1H-indol-2-yl)-3-(2-hydroxyethyl)-4-methoxybenzo[b]thiophen-6-yl)methanone]	395 nM
COc1ccc2cc(-c3sc4cc(C(=O)N5C[C@H](N)C[C@@H](F)C5)cc(OC)c4c3CCO)n(CC3CC3)c2c1 [Example 624, ((3R,5R)-3-amino-5-fluoropiperidin-1-yl)(2-(1-(cyclopropylmethyl)-6-methoxy-1H-indol-2-yl)-3-(2-hydroxyethyl)-4-methoxybenzo[b]thiophen-6-yl)methanone]	383 nM
COc1cc(C(=O)N2CCC[C@@H](N)C2)cc2sc(-c3cc4ccccc4n3CC3CC3)c(CCN)c12 [Example 625, (R)-(3-(2-aminoethyl)-2-(1-(cyclopropylmethyl)-1H-indol-2-yl)-4-methoxybenzo[b]thiophen-6-yl)(3-aminopiperidin-1-yl)methanone]	2040 nM
Cc1c(-c2cc3ccccc3n2CC2CC2)sc2cc(C(=O)N3CCC[C@@H](N)C3)cc(CCO)c12 [Example 626, (R)-(3-aminopiperidin-1-yl)(2-(1-(cyclopropylmethyl)-1H-indol-2-yl)-4-(2-hydroxyethyl)-3-methylbenzo[b]thiophen-6-yl)methanone]	849 nM
Cc1c(-c2cc3ccccc3n2CC2CC2)sc2cc(C(=O)N3CCC[C@@H](N)C3)cc(CO)c12 [Example 627, (R)-(3-Aminopiperidin-1-yl)(2-(1-(cyclopropylmethyl)-1H-indol-2-yl)-4-(hydroxymethyl)-3-methylbenzo[b]thiophen-6-yl)methanone]	879 nM
COc1ccc2cc(-c3oc4cc(C(=O)N5C[C@H](N)C[C@@H](F)C5)cc(OC)c4c3CCO)n(CC3CC3)c2c1 [Example 628, ((3R,5R)-3-Amino-5-fluoropiperidin-1-yl)(2-(1-(cyclopropylmethyl)-6-methoxy-1H-indol-2-yl)-3-(2-hydroxyethyl)-4-methoxybenzofuran-6-yl)methanone]	322 nM
COc1cc(C(=O)N2C[C@H](N)C[C@@H](F)C2)cc2oc(-c3cc4cccnc4n3CC3CC3)c(CCO)c12 [Example 629, ((3R,5R)-3-amino-5-fluoropiperidin-1-yl)(2-(1-(cyclopropylmethyl)-1H-pyrrolo[2,3-b]pyridin-2-yl)-3-(2-hydroxyethyl)-4-methoxybenzofuran-6-yl)methanone]	785 nM
COc1cc(C(=O)N2C[C@H](N)C[C@@H](F)C2)cc2oc(-c3cc4ccccc4n3CC3CC3)c(CCO)c12 [Example 630, ((3R,5R)-3-amino-5-fluoropiperidin-1-yl)(2-(1-(cyclopropylmethyl)-1H-indol-2-yl)-3-(2-hydroxyethyl)-4-methoxybenzofuran-6-yl)methanone]	288 nM
CN[C@@H]1C[C@@H](F)CN(C(=O)c2cc(OC)c3c(CCO)c(-c4cc5ccccc5n4CC4CC4)oc3c2)C1 [Example 631, (2-(1-(cyclopropylmethyl)-1H-indol-2-yl)-3-(2-hydroxyethyl)-4-methoxybenzofuran-6-yl)((3R,5R)-3-fluoro-5-(methylamino)piperidin-1-yl)methanone]	7580 nM

molecular target: human PAD4 (hPAD4) (Homo sapiens (Human), UniProt Q9UM07); assay: RFMS Human PAD4 Functional Assay 1; format: biochemical; conditions: RFMS assay 1; 5 nM hPAD4, 250 μM BAEE substrate, 50 μM calcium, 37° C.
How it was run: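 Citrullination product read by RapidFire triple-quad MRM against a modified-citrulline internal standard, after TCA stop and 30 min phenyl glyoxal step at 37 °C. Reaction: 250 μM BAEE, 5 nM human PAD4, 90 min at 37 °C, pH 7.5 HEPES buffer with 50 μM calcium and 5 μM TPEN, following 30 min compound–enzyme preincubation (max 50 μM).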

Sequence of human PAD4 (hPAD4) (Q9UM07 whole entry): as above

SMILES	IC50
COc1cc(C(=O)N2C[C@H](N)C[C@@H](F)C2)cn2nc(-c3cc4ccnc(OCCn5cnnc5)c4n3CC3CC3)c(C)c12 [Example 600, (2-(7-(2-(4H-1,2,4-Triazol-4-yl)ethoxy)-1-(cyclopropylmethyl)-1H-pyrrolo[2,3-c]pyridin-2-yl)-4-methoxy-3-methylpyrazolo[1,5-a]pyridin-6-yl)((3R,5R)-3-amino-5-fluoropiperidin-1-yl)methanone]	30 nM
COc1cc(C(=O)N2CC3CCC2[C@@H]3N)cn2nc(-c3cc4ccnc(OC[C@H]5CCC(=O)N5)c4n3CC3CC3)c(C)c12 (stereo partly drawn) [Example 604, (5R)-5-(((2-(6-((7R)-7-Amino-2-azabicyclo[2.2.1]heptane-2-carbonyl)-4-methoxy-3-methylpyrazolo[1,5-a]pyridin-2-yl)-1-(cyclopropylmethyl)-1H-pyrrolo[2,3-c]pyridin-7-yl)oxy)methyl)pyrrolidin-2-one]	30 nM
Cc1c(-c2cc3ccnc(OCCn4cnnc4)c3n2CC2CC2)nn2cc(C(=O)N3CCC[C@@H](N)C3)ccc12 [Example 609, (R)-(2-(7-(2-(4H-1,2,4-Triazol-4-yl)ethoxy)-1-(cyclopropylmethyl)-1H-pyrrolo[2,3-c]pyridin-2-yl)-3-methylpyrazolo[1,5-a]pyridin-6-yl)(3-aminopiperidin-1-yl)methanone]	40 nM
Cc1c(-c2cc3ccnc(OCCn4cncn4)c3n2CC2CC2)nn2cc(C(=O)N3C[C@H](N)C[C@@H](F)C3)ccc12 [Example 610, (2-(7-(2-(1H-1,2,4-Triazol-1-yl)ethoxy)-1-(cyclopropylmethyl)-1H-pyrrolo[2,3-c]pyridin-2-yl)-3-methylpyrazolo[1,5-a]pyridin-6-yl)((3R,5R)-3-amino-5-fluoropiperidin-1-yl)methanone]	430 nM
Cc1c(-c2cc3ccnc(OCCn4ccnc4C)c3n2CC2CC2)nn2cc(C(=O)N3C[C@H](N)C[C@@H](F)C3)ccc12 [Example 611, ((3R,5R)-3-Amino-5-fluoropiperidin-1-yl)(2-(1-(cyclopropylmethyl)-7-(2-(2-methyl-1H-imidazol-1-yl)ethoxy)-1H-pyrrolo[2,3-c]pyridin-2-yl)-3-methylpyrazolo[1,5-a]pyridin-6-yl)methanone]	1560 nM
Cc1c(-c2cc3ccnc(OCCn4ccnc4C)c3n2CC2CC2)nn2cc(C(=O)N3CCC[C@@H](N)C3)ccc12 [Example 612, (R)-(3-Aminopiperidin-1-yl)(2-(1-(cyclopropylmethyl)-7-(2-(2-methyl-1H-imidazol-1-yl)ethoxy)-1H-pyrrolo[2,3-c]pyridin-2-yl)-3-methylpyrazolo[1,5-a]pyridin-6-yl)methanone]	2960 nM
Cc1c(-c2cc3ccnc(OCCn4cnnc4)c3n2CC2CC2)nn2cc(C(=O)N3C[C@H](N)C[C@@H](F)C3)ccc12 [Example 613, (2-(7-(2-(4H-1,2,4-Triazol-4-yl)ethoxy)-1-(cyclopropylmethyl)-1H-pyrrolo[2,3-c]pyridin-2-yl)-3-methylpyrazolo[1,5-a]pyridin-6-yl)((3R,5R)-3-amino-5-fluoropiperidin-1-yl)methanone]	250 nM
Cc1c(-c2cc3ccnc(OCCn4ccnc4)c3n2CC2CC2)nn2cc(C(=O)N3C[C@H](N)C[C@@H](F)C3)ccc12 [Example 616, (2-(7-(2-(1H-Imidazol-1-yl)ethoxy)-1-(cyclopropylmethyl)-1H-pyrrolo[2,3-c]pyridin-2-yl)-3-methylpyrazolo[1,5-a]pyridin-6-yl)((3R,5R)-3-amino-5-fluoropiperidin-1-yl)methanone]	20 nM
Cc1c(-c2cc3ccnc(OCCn4ccnc4)c3n2CC2CC2)nn2cc(C(=O)N3CCC[C@@H](N)C3)ccc12 [Example 617, (R)-(2-(7-(2-(1H-lmidazol-1-yl)ethoxy)-1-(cyclopropylmethyl)-1H-pyrrolo[2,3-c]pyridin-2-yl)-3-methylpyrazolo[1,5-a]pyridin-6-yl)(3-aminopiperidin-1-yl)methanone]	10 nM
COc1cc(C(=O)N2C[C@H](N)C[C@@H](F)C2)cn2nc(-c3cc4ccnc(OCCn5cnnc5)c4n3C)c(C)c12 [Example 620, (2-(7-(2-(4H-1,2,4-Triazol-4-yl)ethoxy)-1-methyl-1H-pyrrolo[2,3-c]pyridin-2-yl)-4-methoxy-3-methylpyrazolo[1,5-a]pyridin-6-yl)((3R,5R)-3-amino-5-fluoropiperidin-1-yl)methanone]	450 nM
COc1cc(C(=O)N2C[C@H](N)C[C@@H](F)C2)cn2nc(-c3sc4cccc(-c5cnn(CCO)c5)c4c3CC3CC3)c(C)c12 [Example 621, ((3R,5R)-3-Amino-5-fluoropiperidin-1-yl)(2-(3-(cyclopropylmethyl)-4-(1-(2-hydroxyethyl)-1H-pyrazol-4-yl)benzo[b]thiophen-2-yl)-4-methoxy-3-methylpyrazolo[1,5-a]pyridin-6-yl)methanone]	140 nM
